As usually defined, the IC50 is the point on the concentration scale where inhibition reaches its midpoint.

Experimental findings from patent US20110160167A1, “Steroid Derivatives Acting As Glucocorticosteroid Receptor Agonists” (AstraZeneca AB, priority 2007, published 2011) are described below.

This test concerns the target T1, recombinant human GR (Homo sapiens, UniProt P04150).
T1 construct: purchased Panvera/Invitrogen P2812 (kit P2893)
T1 sequence (P04150 1-777): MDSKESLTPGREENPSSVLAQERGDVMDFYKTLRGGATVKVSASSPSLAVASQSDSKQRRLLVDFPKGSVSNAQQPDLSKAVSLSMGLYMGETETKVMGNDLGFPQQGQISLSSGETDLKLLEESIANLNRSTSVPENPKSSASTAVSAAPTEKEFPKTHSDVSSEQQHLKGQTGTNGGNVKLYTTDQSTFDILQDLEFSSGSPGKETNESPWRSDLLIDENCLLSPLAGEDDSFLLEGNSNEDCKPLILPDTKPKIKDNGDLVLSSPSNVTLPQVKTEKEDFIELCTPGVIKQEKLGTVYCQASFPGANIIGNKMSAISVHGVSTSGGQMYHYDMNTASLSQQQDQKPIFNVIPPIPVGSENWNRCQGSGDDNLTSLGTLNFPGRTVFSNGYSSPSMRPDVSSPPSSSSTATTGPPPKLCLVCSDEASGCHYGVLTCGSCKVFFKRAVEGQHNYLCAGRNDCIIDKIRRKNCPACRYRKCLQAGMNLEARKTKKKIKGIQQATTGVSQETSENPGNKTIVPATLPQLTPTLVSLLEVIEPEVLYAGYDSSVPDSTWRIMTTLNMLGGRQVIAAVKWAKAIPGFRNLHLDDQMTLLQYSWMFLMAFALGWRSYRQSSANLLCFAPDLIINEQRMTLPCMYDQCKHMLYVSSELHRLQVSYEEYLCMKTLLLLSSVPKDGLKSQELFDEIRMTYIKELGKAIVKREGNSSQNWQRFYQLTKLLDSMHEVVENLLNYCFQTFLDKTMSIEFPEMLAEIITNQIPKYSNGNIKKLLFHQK
The test can be described thus: Human Glucocorticoid Receptor (GR) Assay (fluorescence polarization, Panvera/Invitrogen kit). Particulars: GS Red tracer, 2 hours at room temperature, 100% control 10 μM Dexamethasone, read-out: Inhibition of GR binding, IC50. Here is the method: Human Glucocorticoid Receptor (GR) Assay The assay is based on a commercial kit from Panvera/Invitrogen (Part number P2893). The assay technology is fluorescence polarization. The kit utilises recombinant human GR (Panvera, Part number P2812), a Fluoromone™ labelled tracer (GS Red, Panvera, Part number P2894) and a Stabilizing Peptide 10× (Panvera, Part number P2815). The GR and Stabilizing Peptide reagents are stored at −70° C. while the GS Red is stored at −20° C. Also included in the kit are 1M DTT (Panvera, Part number P2325, stored at −20° C.) and GR Screening buffer 10× (Panvera, Part number P2814, stored at −70° C. initially but once thawed stored at room temperature). Avoid repeated freeze/thaws for all reagents. The GR Screening buffer 10× comprises 100 mM potassium phosphate, 200 mM sodium molybdate, 1 mM EDTA and 20% DMSO. Test compounds (1 μL) and controls (1 μL) in 100% DMSO were added to black polystyrene 384-well plates (Greiner low volume black flat-bottom, part number 784076). 0% control was 100% DMSO and 100% control was 10 μM Dexamethasone. Background solution (8 μL; assay buffer 10×, Stabilizing Peptide, DTT and ice cold MQ water) was added to the background wells. GS Red solution (7 μL; assay buffer 10×, Stabilizing Peptide, DTT, GS Red and ice cold water) was added to all wells except background wells. GR solution (7 μL; assay buffer 10×, Stabilizing Peptide, DTT, GR and ice cold water) was added to all wells. The plate was sealed and incubated in a dark at room temperature for 2 hours. The plate was read in an Analyst plate reader (LJL Biosystems/Molecular Devices Corporation) or other similar plate reader capable of recording fluorescence polarization (excitation wavelength 530 nm, emission wavelength 590 nm and a dichroic mirror at 561 nm).

Consider `CC1(C)O[C@@H]2C[C@H]3[C@@H]4CCC5=Cc6c(cnn6-c6ccc(F)cc6)C[C@]5(C)[C@H]4[C@@H](O)C[C@]3(C)[C@]2(C(=O)CO)O1` [Example 20, 1-[(4aR,4bS,5S,6aS,6bS,9aR,10aS,10bS)-1-(4-Fluorophenyl)-5-hydroxy-4a,6a,8,8-tetramethyl-4,4a,4b,5,6,6a,9a,10,10a,10b,11,12-dodecahydro[1,3]dioxolo-[3′,4′]cyclopenta[1′,2′:5,6]naphtho[1,2-f]indazol-6b(1H)-yl]-2-hydroxyethanone], for which the IC50 was determined as 1.3 nM. To `CCC[C@@H]1O[C@@H]2C[C@H]3[C@@H]4CCC5=Cc6c(cnn6-c6ccc(F)cc6)C[C@]5(C)[C@H]4[C@@H](O)C[C@]3(C)[C@]2(C(=O)CO)O1` [Example 18, 1-[(4aR,4bS,5S,6aS,6bS,8R,9aR,10aS,10bS)-1-(4-Fluorophenyl)-5-hydroxy-4a,6a-dimethyl-8-propyl-4,4a,4b,5,6,6a,9a,10,10a,10b,11,12-dodecahydro[1,3]dioxolo[3′,4′]-cyclopenta[1′,2′:5,6]naphtho[1,2-f]indazol-6b(1H)-yl]-2-hydroxyethanone] belongs 2.3 nM; to `CCC[C@@H]1O[C@@H]2C[C@H]3[C@@H]4CCC5=Cc6c(cnn6-c6ccc(F)c(CO)c6)C[C@]5(C)[C@H]4[C@@H](O)C[C@]3(C)[C@]2(C(=O)CO)O1` [Example 16, 1-[(4aR,4bS,5S,6aS,6bS,8R,9aR,10aS,10bS)-1-[4-Fluoro-3-(hydroxymethyl)phenyl]-5-hydroxy-4a,6a-dimethyl-8-propyl-4,4a,4b,5,6,6a,9a,10,10a,10b,11,12-dodecahydro[1,3]dioxolo[3′,4′]cyclopenta[1′,2′:5,6]naphtho[1,2-f]indazol-6b(1H)-yl]-2-hydroxyethanone], 3.1 nM; to `CCC[C@@H]1O[C@@H]2C[C@H]3[C@@H]4CCC5=Cc6c(cnn6-c6ccc(F)c(CNCCO)c6)C[C@]5(C)[C@H]4[C@@H](O)C[C@]3(C)[C@]2(C(=O)CO)O1` [Example 15, 1-[(4aR,4bS,5S,6aS,6bS, 8R,9aR,10aS,10bS)-1-(4-fluoro-3-{[(2-hydroxyethyl)amino]-methyl}phenyl)-5-hydroxy-4a,6a-dimethyl-8-propyl-4,4a, 4b,5,6,6a,9a,10,- 10a,10b,11,12-dodecahydro [1,3]dioxolo-[3′,4′]cyclopenta[1′,2′:5,6]naphtho[1,2-f]indazol-6b(1H)-yl]-2-hydroxyethanone trifluoroacetic acid], 42 nM. To `CCC[C@@H]1O[C@@H]2C[C@H]3[C@@H]4CCC5=Cc6c(cnn6-c6ccc(F)c(CN7CCC(CO)CC7)c6)C[C@]5(C)[C@H]4[C@@H](O)C[C@]3(C)[C@]2(C(=O)CO)O1` [Example 13, 1-[(4aR,4bS,5S,6aS,6bS, 8R,9aR,10aS,10bS)-1-(4-fluoro-3-{[4-(hydroxymethyl)piperidin-1-yl]methyl}phenyl)-5-hydroxy-4a,6a-dimethyl-8-propyl-4,4a,4b,5,6,6a,9a,10, 10a,10b,11,12-dodecahydro[1,3]dioxolo [3′,4′]cyclopenta [1′,2′:5,6]naphtho[1,2-f]indazol-6b(1H)-yl]-2-hydroxyethanone trifluoroacetic acid] belongs 32 nM; to `CC1(C)O[C@@H]2C[C@H]3[C@@H]4C=CC5=Cc6c(cnn6-c6ccc(F)cc6)C[C@]5(C)[C@H]4[C@@H](O)C[C@]3(C)[C@]2(C(=O)CO)O1` [Example 24, 1-[(4aR,4bS,5S,6aS,6bS,9aR,10aS,10bS)-1-(4-Fluorophenyl)-5-hydroxy-4a,6a,8,8-tetramethyl-4,4a,4b,5,6,6a,9a,10,10a,10b-decahydro[1,3]dioxolo[3′,4′]cyclopenta-[1′,2′:5,6]naphtho[1,2-f]indazol-6b(1H)-yl]-2-hydroxyethanone], 3.8 nM; to `CCC[C@@H]1O[C@@H]2C[C@H]3[C@@H]4CCC5=Cc6c(cnn6-c6ccc(F)c(CN7CCOCC7)c6)C[C@]5(C)[C@H]4[C@@H](O)C[C@]3(C)[C@]2(C(=O)CO)O1` [Example 1, 1-[(4aR,4bS,5S,6aS,6bS,8R,9aR,10aS,10bS)-1-[4-fluoro-3-(morpholin-4-ylmethyl)phenyl]-5-hydroxy-4a,6a-dimethyl-8-propyl-4,4a,4b,5,6,6a,9a,10,10a,10b,11,12-dodecahydro[1,3]-dioxolo[3′,4′]cyclopenta-[1′,2′:5,6]naphtho[1,2-f]indazol-6b(1H)-yl]-2-hydroxyethanone trifluoroacetic acid], 8 nM.
